Measured values reported in patent US7317100B2, “Epothilone derivatives” (Novartis AG, priority 2002, dated 2008).

Experiments:
[1] = molecular target: T1, porcine microtubule protein (tubulin plus microtubule-associated proteins) (Sus scrofa, UniProt P02554); test: Test-compound-induced polymerisation of porcine microtubule protein (inhibition of microtubule depolymerisation); format: biochemical, pig; conditions: test compound 4 uM, porcine microtubule protein (Batch #9) 0.8 mg/ml; 25 μM epothilone B = 100% polymerization, vehicle = 0%
T1 construct: extracted from pigs' brain by two cycles of temperature-dependent depolymerisation/polymerisation; from tissue; host or cells: pig brain
Protocol: Stock solutions of the test compounds (10 mM) are prepared in DMSO and stored at −20° C. […] The degree of test-compound-induced polymerisation of porcine microtubule protein is determined basically as already known (see Lin et al., Cancer Chem. Pharm. 1996; 38:136-140). To summarise, a working aliquot of porcine microtubule protein is rapidly thawed and then diluted to 2× final desired concentration in ice-cold 2× MEM buffer (200 ml MES, 2 mM EGTA, 2 mM MgCl2, pH 6.7) [MES=2-morpholinoethanesulphonic acid, EGTA=ethylene glycol-bis-2(2-aminoethyl)-tetraacetic acid]. Drug or vehicle (DMSO, final concentration 5%) is diluted in water at room temperature to 2× the final desired concentration in a 0.5 ml eppendorf tube, and then put on ice. Following addition of an equal volume (50 μl) of microtubule protein (2× final desired concentration in 2× MEM buffer), the polymerization reaction is started by transferring the incubation mixtures to a room-temperature water bath for 5 min. The reaction mixtures are then placed in an Eppendorf microcentrifuge (model 5415 C) and incubated for an additional 15 min at room temperature. The samples are then centrifuged for 15 min at 14,000 rpm at room temperature. As an indirect measure for microtubule protein polymerization, the protein concentration of the supernatant (containing the remainder of non-polymerized, soluble microtubule protein) is determined by the Lowry method (DC Assay Kit, Bio-Rad Laboratories, Hercules, Calif.) and the optical density of the colour reaction is measured at 750 nm with a SpectraMax 340 photometer (Molecular Devices, Sunnydale, Calif.). […] Vehicle-treated samples serve as negative control (0% polymerization).
Final assay concentrations of test compound and porcine microtubule protein (Batch #9) were 4 uM and 0.8 mg/ml, respectively.

[2] = test system: KB-8511 (multidrug-resistant, P-gp170 overexpressing) epidermoid carcinoma cells; test: Cell growth inhibition, multidrug-resistant KB-8511 epidermoid carcinoma cells (methylene blue staining); format: cell-based, human; conditions: KB-8511 cells (P-gp170 overexpressing), 4 days incubation with compound
Protocol: (§1) Stock solutions of the test compounds (10 mM) are prepared in DMSO and stored at −20° C. Human KB-31 and (multidrug-resistant, P-gp170 overexpressing) KB-8511 epidermoid carcinoma cells originate from Dr. M. Baker, Roswell Park Memorial institute (Buffalo, N.Y., USA) (description: see also Akiyama et al., Somat. Cell. Mol. Genetics 11, 117-126 (1985) and Fojo A., et al., Cancer Res. 45, 3002-3007 (1985) -KB-31 and KB-8511 are both derivatives of the KB cell line (ATCC). KB 31 cells may be cultivated in monolayers using RPMI-1640 medium (Amimed, BioConcept, Allschwil, Switzerland) with 10% foetal calf serum (Amimed, BioConcept, Allschwil, Switzerland), L-glutamine (Amimed, BioConcept, Allschwil, Switzerland), penicillin (50 units/ml) and streptomycin (50 μg/ml (Amimed, BioConcept, Allschwil, Switzerland). KB-8511 is a variant derived from the KB-31 cell line, which was obtained using colchichine treatment cycles, and has an approximately 40 times relative resistance to colchichine compared with KB-31 cells (Akiyama et al., Somat. Cell. Mol. Genetics 11, 117-126 (1985) and Fojo A., et al., Cancer Res. 45, 3002-3007 (1985)). The cells are incubated at 37° C. in an incubator with 5% v/v CO2 and at 80% relative humidity with RPMI-1640 medium complemented as described above. The cells are seeded in a quantity of 1.5×10^3 cells/well in 96-well microtitre plates, and incubated over night. Serial dilutions of the test compounds in culture medium are added on day 1. The plates are then incubated for a further 4 days, after which the cells are fixed with 3.3% v/v glutaraldehyde, washed with water and dyed with 0.05% w/v methylene blue. After washing, the dye is eluted with 3% HCl and the optical density measured at 665 nm with a SpectraMax 340 (Molecular Devices, Sunnyvale, Calif.). IC50 values are determined by adaptation of mathematical curves, using the SoftProprogramme (Version 2.0 or later; Molecular Devices, Sunnyvale, Calif.) and using the formula [(OD treated)−(OD start)]/[(OD control)−(OD start)]×100. […]

[3] = test system: KB-31 epidermoid carcinoma cells; test: Cell growth inhibition, KB-31 epidermoid carcinoma cells (methylene blue staining); format: cell-based, human; conditions: KB-31 cells, 4 days incubation with compound
Protocol: as §1

T1 sequence (P02554 whole entry): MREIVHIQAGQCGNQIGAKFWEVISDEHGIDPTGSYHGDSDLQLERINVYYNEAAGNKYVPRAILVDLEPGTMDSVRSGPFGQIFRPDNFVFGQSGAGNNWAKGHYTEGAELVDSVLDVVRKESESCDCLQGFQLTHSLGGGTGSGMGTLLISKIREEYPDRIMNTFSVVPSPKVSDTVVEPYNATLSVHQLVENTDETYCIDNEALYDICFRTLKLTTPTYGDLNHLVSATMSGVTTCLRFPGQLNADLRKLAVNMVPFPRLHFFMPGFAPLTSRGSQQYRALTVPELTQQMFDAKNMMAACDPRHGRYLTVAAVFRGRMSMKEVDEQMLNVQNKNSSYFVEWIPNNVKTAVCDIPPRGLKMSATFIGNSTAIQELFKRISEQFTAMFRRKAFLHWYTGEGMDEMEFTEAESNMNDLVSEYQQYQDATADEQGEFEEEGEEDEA
T1 sequence (P02550 whole entry partner): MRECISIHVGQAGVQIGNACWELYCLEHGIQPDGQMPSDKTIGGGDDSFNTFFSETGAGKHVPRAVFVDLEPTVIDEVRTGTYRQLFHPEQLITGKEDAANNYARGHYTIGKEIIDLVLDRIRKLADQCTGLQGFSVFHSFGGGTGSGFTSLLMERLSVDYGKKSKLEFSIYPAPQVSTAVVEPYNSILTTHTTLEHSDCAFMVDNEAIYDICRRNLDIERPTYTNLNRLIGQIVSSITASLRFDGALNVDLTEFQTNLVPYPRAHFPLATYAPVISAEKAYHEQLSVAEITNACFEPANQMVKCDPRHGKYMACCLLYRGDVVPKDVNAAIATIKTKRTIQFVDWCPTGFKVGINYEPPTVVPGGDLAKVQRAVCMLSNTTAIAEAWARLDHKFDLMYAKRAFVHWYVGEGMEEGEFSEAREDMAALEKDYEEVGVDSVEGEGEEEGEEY

IC50 ([2]; Homo sapiens, 96 h) [nM] | IC50 ([3]; Homo sapiens, KB 3-1, 96 h) [nM] | SMILES | Tubulin Polymerisation (% of control) [1] | IC50 [2] [nM] | IC50 [3] [nM]
 |  | C/C(=C\c1csc(C)n1)C1CC2OC2(C)CCCC(C)C(O)C(C)C(=O)C(C)C(O)CC(=O)O1 (stereo not drawn) [Example 1, C4-Desmethyl-Epothilone B] | 93.3 % of control | 0.8 ± 0.16 | 0.49 ± 0.05
 |  | C/C(=C\c1csc(C)n1)[C@@H]1C[C@@H]2O[C@]2(C)CCC[C@H](C)[C@H](O)[C@@H](C)C(=O)C(C)(C)[C@@H](O)CC(=O)O1 [Epothilone B] | 93.3 % of control | 0.2 ± 0.04 | 0.28 ± 0.04
739 ± 86 | 3.76 ± 0.52 | CC(=O)O[C@H]1C(=O)[C@@]2(C)[C@H]([C@H](OC(=O)c3ccccc3)[C@]3(O)C[C@H](OC(=O)[C@H](O)[C@@H](NC(=O)c4ccccc4)c4ccccc4)C(C)=C1C3(C)C)[C@]1(OC(C)=O)CO[C@@H]1C[C@@H]2O [Paclitaxel] |  |  | 
 |  | C/C(=C\c1csc(C)n1)[C@@H]1C[C@@H]2O[C@@H]2CCC[C@H](C)[C@H](O)[C@@H](C)C(=O)C(C)(C)[C@@H](O)CC(=O)O1 [Epothilone A] | 76.5 % of control |  | 
